# Data: patent US20190350940A1, “PLATINUM COMPOUNDS, COMPOSITIONS, AND USES THEREOF” (priority 2015, published 2019)
# “Also recorded” adds a separate entry of the source.
# System: male and female rats
# Experiment: Repeat-dose intravenous toxicity study in rats with a 3-week recovery period (Compound 8-TX-007)
# Type: in vivo
# Method: Groups of 30 animals (15/sex) each received vehicle control or Compound 8 9, 14, 19, or 6 mg/kg. Groups of 20 animals (10/sex) received Compound 8 9, 14, 19, or 6 mg/kg and 6 animals (3/sex) received vehicle control in the TK portion of the study.
# Assessment of toxicity was based on mortality, clinical observations, functional observational battery evaluations, body weight, and food consumption and efficiency; ophthalmoscopic examinations; and clinical and anatomical pathology. RBC pellet analysis was conducted for total platinum content.
# Toxicity and TK assessments were conducted for the test article and positive control.
smiles,measurement,setting,value
CC(=O)[O][Pt]([NH2])([NH2])([Cl])([Cl])[O]C(=O)NCCCCCN1C(=O)C=CC1=O [Compound 8],Body weights (decreased relative to vehicle),Compound 8 9 mg/kg,transiently through Day 7
same,Local tolerance: microscopic evaluation of the last injection site,"Compound 8 19 mg/kg, terminal males and females",slightly increased incidence and/or severity of perivascular subacute/chronic inflammation and/or hemorrhage
same,Changes attributable to altered renal function,"Compound 8 9, 14, 19 mg/kg",noted in both sexes at all Compound 8 dose levels
same,"Deaths, clinical observations, functional observation battery (FOB), ophthalmic examinations","Compound 8 9, 14, 19 mg/kg",no deaths and no effects were noted
same,Clinical Chemistry (moderate to marked),"Compound 8, 19 mg/kg","Creatinine↑, AST↑, ALT↑,; also recorded: Amylase↑, Lipase↑,; also recorded: Cholesterol↑ Globulin↑"
same,"Clinical observations, FOB and ophthalmic observations","Compound 8, 19 mg/kg",No adverse effects
same,Mortality,"Compound 8, 19 mg/kg",No unscheduled deaths
same,Pathology: Kidneys (moderate or severe),"Compound 8, 19 mg/kg",Tubule degeneration/necrosis
same,Pathology: Organ weights,"Compound 8, 19 mg/kg",Thymus↓
same,Pathology: Stomach nonglandular,"Compound 8, 19 mg/kg","erosion ulcer (1M), no"
same,Pathology: Testes,"Compound 8, 19 mg/kg",Degeneration/atrophy (1M)
same,Pathology: Thymus,"Compound 8, 19 mg/kg","(1M), (moderate at terminal,"
same,"Microscopic changes, kidney","rat, in vivo",kidney tubular degeneration/necrosis and/or regeneration
same,Organ weight changes,"rat, in vivo, 14 mg/kg",decreased absolute and relative thymus weights in males and females
same,Increase in urea nitrogen,"rat, in vivo, 19 mg/kg",+14%
